Data as given in patent US20240343704A1, “HALO-SUBSTITUTED AMINO PYRIDINE COMPOUNDS AS INHIBITORS OF THE HAEMATOPOIETIC PROGENITOR KINASE 1 (HPK1)” (priority 2021, published 2024).
Like-named read-outs stand apart in the source and are kept apart here.

Experiments:
[1] = target: T1, Recombinant (1-346) HPK1 (h) (Homo sapiens, UniProt Q92918); test: HPK1 Human STE Kinase Enzymatic Radiometric Assay; assay type: biochemical
T1 construct: Recombinant (1-346) HPK1 (h) is incubated with 8 mM MOPS pH 7.0
T1 sequence (Q92918 1-346): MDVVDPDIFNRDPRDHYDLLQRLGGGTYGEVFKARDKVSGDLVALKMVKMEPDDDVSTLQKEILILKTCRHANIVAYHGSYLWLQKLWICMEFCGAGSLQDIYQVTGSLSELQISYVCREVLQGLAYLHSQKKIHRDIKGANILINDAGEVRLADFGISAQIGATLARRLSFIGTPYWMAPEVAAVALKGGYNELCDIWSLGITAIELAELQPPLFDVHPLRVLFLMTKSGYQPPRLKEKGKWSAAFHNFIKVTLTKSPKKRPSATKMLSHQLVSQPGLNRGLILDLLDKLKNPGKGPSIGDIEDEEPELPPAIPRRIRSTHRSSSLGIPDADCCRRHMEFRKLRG
Experimental: A stock solution of 10 mM of test compound is prepared in DMSO. The compound plate was prepared by 3-fold and 9-point serial dilutions. […] The reaction is initiated by The addition of the Mg/ATP mix. After incubation for 40 minutes at RT, the reaction is stopped by the addition of phosphoric acid to a concentration of 0.5%.

Lck (h) = Lck (h) (Homo sapiens, UniProt P06239); test: Lck Human  Kinase Enzymatic Radiometric Assay; assay type: biochemical
Procedure, shortened: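 Substrate 33P-incorporation measured by scintillation counting after spotting on P30 filtermat and phosphoric acid washes. Human Lck reacted 40 min at RT in 50 mM Tris pH 7.5 with 10 mM MgAcetate, [gamma-33P]-ATP, 250 uM Cdc2 peptide, 0.1 mM EGTA and 0.1 mM Na3VO4.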

Sequence of Lck (h) (P06239 whole entry): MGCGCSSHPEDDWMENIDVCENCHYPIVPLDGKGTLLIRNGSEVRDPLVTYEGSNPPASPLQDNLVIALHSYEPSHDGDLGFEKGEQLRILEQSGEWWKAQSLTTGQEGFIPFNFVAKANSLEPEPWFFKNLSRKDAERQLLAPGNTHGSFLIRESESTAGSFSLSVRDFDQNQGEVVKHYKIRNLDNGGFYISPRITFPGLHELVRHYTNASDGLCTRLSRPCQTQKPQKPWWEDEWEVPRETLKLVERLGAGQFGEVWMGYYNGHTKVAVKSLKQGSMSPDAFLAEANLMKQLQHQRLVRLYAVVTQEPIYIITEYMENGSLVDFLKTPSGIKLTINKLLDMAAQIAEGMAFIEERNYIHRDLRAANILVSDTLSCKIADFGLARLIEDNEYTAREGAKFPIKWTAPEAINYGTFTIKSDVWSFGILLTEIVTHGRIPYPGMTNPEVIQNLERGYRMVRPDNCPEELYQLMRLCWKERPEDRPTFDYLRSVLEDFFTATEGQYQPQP

Row | Structure (SMILES) | IC50 ([1]; read-out: HPK1 IC50 nM Range*) [nM] | IC50 (Lck (h); read-out: Lck IC50 nM Range*) [nM] | IC50 [1] [nM] | IC50 (Lck (h)) [nM]
1 | CNc1cc(-c2cc(-c3ccc(N4CCN(C(C)C)CC4)cc3)c(F)nc2N)cc2c1C(=O)NCC2 [I-356, 6-(2-amino-6-fluoro-5-(4-(4-isopropylpiperazin-1-yl)phenyl)pyridin-3-yl)-8-(methylamino)-3,4-dihydroisoquinolin-1(2H)-one] | 11 to 100 | 101 to 1000 | – | –
2 | CCN1CCCCC1c1ccc(-c2cc(-c3ccc4c(c3)CCNC4=O)c(N)nc2F)cc1 (stereo not drawn) [I-100, 6-(2-amino-5-(4-(1-ethylpiperidin-2-yl)phenyl)-6-fluoropyridin-3-yl)-3,4-dihydroisoquinolin-1(2H)-one] | 0.1 to 10 | > 1000 | – | –
3 | Nc1nc(F)c(-c2cc(F)c(OC3CCNCC3)cc2F)cc1-c1ccc2c(c1)CCNC2=O [I-149, 6-(2-amino-5-(2,5-difluoro-4-(piperidin-4-yloxy)phenyl)-6-fluoropyridin-3-yl)-3,4-dihydroisoquinolin-1(2H)-one] | 11 to 100 | > 1000 | – | –
4 | CN1CCN(Cc2ccc(-c3cc(-c4ccc5c(c4)CCNC5=O)c(N)nc3F)cc2)CC1 [I-258, 6-(2-amino-6-fluoro-5-(4-((4-methylpiperazin-1-yl)methyl)phenyl)pyridin-3-yl)-3,4-dihydroisoquinolin-1(2H)-one] | 11 to 100 | > 1000 | – | –
5 | Nc1nc(F)c(-c2ccc(S(=O)(=O)C(F)(F)F)cc2)cc1-c1ccc2c(c1)CCNC2=O [I-87, 6-(2-amino-6-fluoro-5-(4-((trifluoromethyl)sulfonyl)phenyl)pyridin-3-yl)-3,4-dihydroisoquinolin-1(2H)-one] | 11 to 100 | > 1000 | – | –
6 | COCCN1CCN(Cc2cccc(-c3cc(-c4ccc5c(c4)CCNC5=O)c(N)nc3F)c2)CC1 [I-329, 6-(2-amino-6-fluoro-5-(3-((4-(2-methoxyethyl)piperazin-1-yl)methyl)phenyl)pyridin-3-yl)-3,4-dihydroisoquinolin-1(2H)-one] | 101 to 1000 | > 1000 | – | –
7 | Nc1nc(F)c(-c2ccc(C3=CCN(C4COC4)CC3)cc2)cc1-c1ccc2c(c1)CCNC2=O [I-155, 6-(2-amino-6-fluoro-5-(4-(1-(oxetan-3-yl)-1,2,3,6-tetrahydropyridin-4-yl)phenyl)pyridin-3-yl)-3,4-dihydroisoquinolin-1(2H)-one] | 0.1 to 10 | > 1000 | – | –
8 | COCCN1CCc2cc(-c3cc(-c4ccc5c(c4)CCNC5=O)c(N)nc3F)ccc2C1 [I-266, 6-(2-amino-6-fluoro-5-(2-(2-methoxyethyl)-1,2,3,4-tetrahydroisoquinolin-6-yl)pyridin-3-yl)-3,4-dihydroisoquinolin-1(2H)-one] | 11 to 100 | > 1000 | – | –
9 | Nc1nc(F)c(-c2ccc(N3CCN(CCC4CC4)CC3)cc2)cc1-c1cc(F)c2c(c1)CCNC2=O [I-384, 6-(2-amino-5-(4-(4-(2-cyclopropylethyl)piperazin-1-yl)phenyl)-6-fluoropyridin-3-yl)-8-fluoro-3,4-dihydroisoquinolin-1(2H)-one] | 0.1 to 10 | 101 to 1000 | – | –
10 | Nc1nc(F)c(-c2ccc(OC3CCN(CCCC(F)(F)F)CC3)cc2)cc1-c1ccc2c(c1)CCNC2=O [I-188, 6-(2-amino-6-fluoro-5-(4-((1-(4,4,4-trifluorobutyl)piperidin-4-yl)oxy)phenyl)pyridin-3-yl)-3,4-dihydroisoquinolin-1(2H)-one] | 0.1 to 10 | > 1000 | – | –
11 | Nc1nc(F)c(-c2ccc(OC3CN(C(=O)CC4CC4)C3)cc2)cc1-c1ccc2c(c1)CCNC2=O [I-317, 6-(2-amino-5-(4-((1-(2-cyclopropylacetyl)azetidin-3-yl)oxy)phenyl)-6-fluoropyridin-3-yl)-3,4-dihydroisoquinolin-1(2H)-one] | 0.1 to 10 | > 1000 | – | –
12 | CC(C)[C@@H]1CN(c2ccc(-c3cc(-c4ccc5c(c4)CCNC5=O)c(N)nc3F)c(F)c2)CCN1C [I-49, (R)-6-(2-amino-6-fluoro-5-(2-fluoro-4-(3-isopropyl-4-methylpiperazin-1-yl)phenyl)pyridin-3-yl)-3,4-dihydroisoquinolin-1(2H)-one] | 0.1 to 10 | > 1000 | – | –
13 | CC(C)N1CCc2cc(-c3cc(-c4ccc5c(c4)CCNC5=O)c(N)nc3F)ccc2C1 [I-328, 6-(2-amino-6-fluoro-5-(2-isopropyl-1,2,3,4-tetrahydroisoquinolin-6-yl)pyridin-3-yl)-3,4-dihydroisoquinolin-1(2H)-one] | 11 to 100 | > 1000 | – | –
14 | CC(=O)N1CCC2(CC1)OCc1cc(-c3cc(-c4ccc5c(c4)CCNC5=O)c(N)nc3F)ccc1O2 [I-191, 6-(5-(1′-acetyl-4H-spiro[benzo[d][1,3]dioxine-2,4′-piperidin]-6-yl)-2-amino-6-fluoropyridin-3-yl)-3,4-dihydroisoquinolin-1(2H)-one] | – | – | 0.1 to 10 | > 1000
15 | C[C@H](C1CC1)N1CCN(c2ccc(-c3cc(-c4cc(F)c5c(c4)CCNC5=O)c(N)nc3F)cc2)CC1 [I-390, (R)-6-(2-amino-5-(4-(4-(1-cyclopropylethyl)piperazin-1-yl)phenyl)-6-fluoropyridin-3-yl)-8-fluoro-3,4-dihydroisoquinolin-1(2H)-one] | 0.1 to 10 | 101 to 1000 | – | –
16 | Nc1nc(F)c(-c2ccc(N3CCN4CCCC4C3)cc2)cc1-c1ccc2c(c1)CCNC2=O (stereo not drawn) [I-280, 6-(2-amino-6-fluoro-5-(4-(hexahydropyrrolo[1,2-a]pyrazin-2(1H)-yl)phenyl)pyridin-3-yl)-3,4-dihydroisoquinolin-1(2H)-one] | 0.1 to 10 | > 1000 | – | –
17 | Nc1nc(F)c(-c2ccc(C3COCCN3CC(F)F)cc2)cc1-c1ccc2c(c1)CCNC2=O (stereo not drawn) [I-133, 6-(2-amino-5-(4-(4-(2,2-difluoroethyl)morpholin-3-yl)phenyl)-6-fluoropyridin-3-yl)-3,4-dihydroisoquinolin-1(2H)-one] | 0.1 to 10 | > 1000 | – | –
18 | CS(=O)(=O)c1ccc(-c2cc(-c3ccc4c(c3)CCNC4=O)c(N)nc2F)cc1 [I-62, 6-(2-amino-6-fluoro-5-(4-(methylsulfonyl)phenyl)pyridin-3-yl)-3,4-dihydroisoquinolin-1(2H)-one] | 0.1 to 10 | > 1000 | – | –
19 | COCCN1CCC(F)(c2ccc(-c3cc(-c4ccc5c(c4)CCNC5=O)c(N)nc3F)cc2)CC1 [I-251, 6-(2-amino-6-fluoro-5-(4-(4-fluoro-1-(2-methoxyethyl)piperidin-4-yl)phenyl)pyridin-3-yl)-3,4-dihydroisoquinolin-1(2H)-one] | 0.1 to 10 | > 1000 | – | –
20 | Nc1nc(F)c(-c2ccc(N3CCN(CC(F)F)CC3)cc2)cc1-c1cc2c(cc1F)C(=O)NCC2 [I-236, 6-(2-amino-5-(4-(4-(2,2-difluoroethyl)piperazin-1-yl)phenyl)-6-fluoropyridin-3-yl)-7-fluoro-3,4-dihydroisoquinolin-1(2H)-one] | 0.1 to 10 | > 1000 | – | –
21 | COc1cc(OC2CCN(C(C)C)CC2)ccc1-c1cc(-c2ccc3c(c2)CCNC3=O)c(N)nc1F [I-272, 6-(2-amino-6-fluoro-5-(4-((1-isopropylpiperidin-4-yl)oxy)-2-methoxyphenyl)pyridin-3-yl)-3,4-dihydroisoquinolin-1(2H)-one] | 0.1 to 10 | > 1000 | – | –
22 | CN1CCCN(S(=O)(=O)c2ccc(-c3cc(-c4ccc5c(c4)CCNC5=O)c(N)nc3F)cc2)CC1 [I-206, 6-(2-amino-6-fluoro-5-(4-((4-methyl-1,4-diazepan-1-yl)sulfonyl)phenyl)pyridin-3-yl)-3,4-dihydroisoquinolin-1(2H)-one] | 0.1 to 10 | > 1000 | – | –
23 | C[C@@H]1CN(c2ccc(-c3cc(-c4ccc5c(c4)CCNC5=O)c(N)nc3F)cc2)C[C@H](C)N1 [I-319, 6-(2-amino-5-(4-((3R,5S)-3,5-dimethylpiperazin-1-yl)phenyl)-6-fluoropyridin-3-yl)-3,4-dihydroisoquinolin-1(2H)-one] | 0.1 to 10 | > 1000 | – | –
24 | CC(C)(C)OC(=O)N1CCC(Oc2ccc(-c3cc(-c4ccc5c(c4)CCNC5=O)c(N)nc3F)cc2C#N)CC1 [I-176, tert-butyl 4-(4-(6-amino-2-fluoro-5-(1-oxo-1,2,3,4-tetrahydroisoquinolin-6-yl)pyridin-3-yl)-2-cyanophenoxy)piperidine-1-carboxylate] | 11 to 100 | > 1000 | – | –
